Assay results from patent EP0297456A2, “Immunosuppressant peptides” (MERRELL DOW PHARMACEUTICALS INC., priority 1987, dated 1989).

How the values were obtained:
[1] = test system: Anti-T₃ Stimulated Lymphocytes (Human peripheral blood mononuclear leukocytes MNL); assay: Inhibition of ³H-thymidine incorporation in anti-T₃ stimulated lymphocytes; assay type: cell-based; conditions: 72 hour incubation
Protocol: Inhibition of ³H-Thymidine Incorporation in Anti-T₃ Stimulated Lymphocytes by Various Peptides
Human peripheral blood mononuclear leukocytes MNL were isolated by Ficoll-Hypaque density sedimentation. MNL ([…]) were cultured with anti-T₃ (1:10,000 dilution; Ortho Diagnostics) in 0.1 ml DMEM, supplemented with 2% FCS, in 96-well microtiter plates. Following a 72 hour incubation (37°C), including a pulse with 1 µCi of [³H]TdR in the final 18 hours of culture, the cells were harvested and counted as described in Example 6.

[2] = test system: Mixed Lymphocyte Cultures (C57BL/6 and DBA/2 leukocytes); assay: Inhibition of ³H-thymidine incorporation in mixed lymphocyte cultures; assay type: cell-based; conditions: 120 hour incubation
Protocol: Inhibition of ³H-Thymidine Incorporation in Mixed Lymphocyte Cultures by Various Peptides
Spleens were aseptically removed and teased apart in RPMI 1640 culture media to obtain single cell suspensions. Erythrocytes were lysed by suspending cells in ACK buffer (0.155 M NH₄Cl, 0.1 mM EDTA, 0.01 M KHCO₃) and the remaining leukocytes washed. C57BL/6 (5 x 10⁵cells) and DBA/2 (5 x 10⁵cells) leukocytes were co-cultured in 0.1 ml RPMI-1640, supplemented with 2% fetal calf serum (FCS), in 96-well microtiter plates. Various concentrations of peptides were added at the initiation of cell culture. Following a 120 hour incubation (37°C), including a pulse with 1 µCi of [³H]TdR in the final 18 hours of culture, the cells were harvested with an automated cell harvester unit onto filter paper strips and placed in ACS scintillation fluid (Amersham, Oakville, Ontario). The amount of [³H]TdR incorporation was then measured in a Beckman LS 7800 liquid scintillation counter.

Question: “H-LQNRRGLDLLFLKEGGL-NH2 [Example 3, peptide]” was tested. Which “% Inhibition” value ([1]; 12 µM BSA-conjugated peptide) did it give?
Answer: 45%

Question: What about the “³H-Thymidine Incorporation (cpm)” value ([1]; 12 µM BSA-conjugated peptide) of the same substance?
Answer: 31667.±.4729 cpm

Question: What about the “% Inhibition” value ([1]; 24 µM BSA-conjugated peptide) of the same substance?
Answer: 68%

Question: And the “³H-Thymidine Incorporation (cpm)” value ([1]; 24 µM BSA-conjugated peptide)?
Answer: 14027 ± 867 cpm

Question: What about the “% Inhibition” value ([2]; 12 µM BSA-conjugated peptide) of the same substance?
Answer: 57%

Question: And the “³H-Thymidine Incorporation (cpm)” value ([2]; 12 µM BSA-conjugated peptide)?
Answer: 3417 ± 263 cpm

Question: And the “% Inhibition” value ([2]; 24 µM BSA-conjugated peptide)?
Answer: 80%

Question: And the “³H-Thymidine Incorporation (cpm)” value ([2]; 24 µM BSA-conjugated peptide)?
Answer: 1328 ± 421 cpm

Question: How did the “% Inhibition” value ([1]; 4 µM BSA-conjugated peptide) turn out when “H-Glu-Val-Val-Leu-Gln-Asn-Arg-Arg-Gly-Leu-Leu-OH (H-EVVLQNRRGLL-OH) [Example 4, peptide]” was run?
Answer: 5%

Question: And the “³H-Thymidine Incorporation (cpm)” value ([1]; 4 µM BSA-conjugated peptide)?
Answer: 54331 ± 4717 cpm

Question: What about the “% Inhibition” value ([1]; 8 µM BSA-conjugated peptide) of the same substance?
Answer: 11%

Question: What about the “³H-Thymidine Incorporation (cpm)” value ([1]; 8 µM BSA-conjugated peptide) of the same substance?
Answer: 39248 ± 5251 cpm

Question: And the “% Inhibition” value ([2]; 4 µM BSA-conjugated peptide)?
Answer: 28%

Question: What about the “³H-Thymidine Incorporation (cpm)” value ([2]; 4 µM BSA-conjugated peptide) of the same substance?
Answer: 5751 ± 407 cpm

Question: And the “% Inhibition” value ([2]; 8 µM BSA-conjugated peptide)?
Answer: 54%

Question: What about the “³H-Thymidine Incorporation (cpm)” value ([2]; 8 µM BSA-conjugated peptide) of the same substance?
Answer: 3063 ± 372 cpm

Question: “H-LRKLRKRLLRDADDL-NH2 [Example 1, peptide]” was tested. Which “% Inhibition” value ([1]; 9 µM BSA-conjugated peptide) did it give?
Answer: 33%

Question: What about the “³H-Thymidine Incorporation (cpm)” value ([1]; 9 µM BSA-conjugated peptide) of the same substance?
Answer: 38521 ± 5349 cpm

Question: And the “% Inhibition” value ([1]; 18 µM BSA-conjugated peptide)?
Answer: 50%

Question: And the “³H-Thymidine Incorporation (cpm)” value ([1]; 18 µM BSA-conjugated peptide)?
Answer: 21984 ± 3824 cpm

Question: And the “% Inhibition” value ([2]; 9 µM BSA-conjugated peptide)?
Answer: 59%

Question: What about the “³H-Thymidine Incorporation (cpm)” value ([2]; 9 µM BSA-conjugated peptide) of the same substance?
Answer: 3267 ± 457 cpm

Question: And the “% Inhibition” value ([2]; 18 µM BSA-conjugated peptide)?
Answer: 73%

Question: And the “³H-Thymidine Incorporation (cpm)” value ([2]; 18 µM BSA-conjugated peptide)?
Answer: 1800 ± 412 cpm

Question: How did the “% Inhibition” value ([1]; 14 µM BSA-conjugated peptide) turn out when “H-TRLTRKRGLKLATAL-NH2 [Example 2, peptide]” was run?
Answer: 23%

Question: And the “³H-Thymidine Incorporation (cpm)” value ([1]; 14 µM BSA-conjugated peptide)?
Answer: 44151 ± 2151 cpm

Question: And the “% Inhibition” value ([1]; 28 µM BSA-conjugated peptide)?
Answer: 54%

Question: And the “³H-Thymidine Incorporation (cpm)” value ([1]; 28 µM BSA-conjugated peptide)?
Answer: 20041 ± 3331 cpm

Question: What about the “% Inhibition” value ([2]; 14 µM BSA-conjugated peptide) of the same substance?
Answer: 45%

Question: What about the “³H-Thymidine Incorporation (cpm)” value ([2]; 14 µM BSA-conjugated peptide) of the same substance?
Answer: 4406 ± 848 cpm

Question: What about the “% Inhibition” value ([2]; 28 µM BSA-conjugated peptide) of the same substance?
Answer: 67%

Question: What about the “³H-Thymidine Incorporation (cpm)” value ([2]; 28 µM BSA-conjugated peptide) of the same substance?
Answer: 2209 ± 1471 cpm
